In general, Km refers to the concentration of substrate that gives half-maximal velocity. What is called kcat is the maximal rate divided by the concentration of active sites. The term kcat/Km denotes the turnover number divided by the Michaelis constant.

The target in series [1] is T1, 8R,11S-linoleate diol synthase (8R,11S-LDS; PC_1) (Penicillium rubens, UniProt B6HQI5).
T1 construct: gene Pc22g06980; full length, 1,074 residues, C-terminal His6 (pET-21a), E. coli ER2566, HisTrap purified; calculated 120,998 Da; N-terminal DOX domain 1-669, C-terminal P450 hydroperoxide isomerase domain 670-1074
In words: UV-visible spectroscopy, heme/protein absorption ratio (A410/A280). It counts as binding. The following applies: heme occupancy of the purified enzyme.

Series [2] addresses T1, 8R,11S-linoleate diol synthase (8R,11S-LDS; PC_1). As to the kind of experiment: O2 uptake, Clark-type oxygen monitor, Hanes-Woolf plot. The following applies: DOX activity (N-terminal dioxygenase domain of the whole enzyme); co-substrate O2; 50 mM EPPS pH 8.0, 25°C. It counts as biochemical.
Series [3] has the same target. As to the kind of experiment: HPLC of dihydroxy fatty acid product, Hanes-Woolf plot. The series is classed as biochemical. The following applies: whole enzyme activity: overall conversion to dihydroxy fatty acid by sequential DOX and hydroperoxide isomerase domains; 25°C, 50 mM EPPS pH 8.0.
Substrate in series [4]: CCCCCC/C=C\CCCCCCCC(=O)O
In words: O2 uptake, Clark-type oxygen monitor, Hanes-Woolf plot. It counts as biochemical, Penicillium rubens. Particulars: DOX activity (N-terminal dioxygenase domain of the whole enzyme), co-substrate O2, 50 mM EPPS pH 8.0, 25°C.

Regarding `C=CC1=C(C)C2=Cc3c(C=C)c(C)c4[n]3[Fe][n]3c(c(C)c(CCC(=O)O)c3=CC3=NC(=C4)C(C)=C3CCC(=O)O)=CC1=N2` [heme], the “UV-visible spectroscopy, heme/protein absorption ratio (A410/A280)” value in series [1] is “Heme occupancy of the wild-type and H999A, C1001S, and H999A-C1001S variant enzymes”.

Take `CCCCC/C=C\C/C=C\CCCCCCCC(=O)O` [linoleic acid]: the Km in series [2] amounted to 18.9 ± 0.6 µM; in series [3], 86.1 ± 1.8 µM. On to `CCCCCCCC/C=C\CCCCCCCC(=O)O` [oleic acid], for which the Km in series [2] was determined as 34.3 ± 1.2 µM. Consider `CC/C=C\C/C=C\C/C=C\CCCCCCCC(=O)O` [α-linolenic acid], for which the Km in series [2] came out at 69.9 ± 0.3 µM; in series [3] it was 138 ± 3.2 µM.

B1: 8R,11S-linoleate diol synthase (8R,11S-LDS; PC_1) (Penicillium rubens Wisconsin 54-1255) (protein)
chain: MAEKESNSSGKIAQLEQVVAAALRPLPTQTGDGSYVQEPTVTGLAKDLLNFDLKDAKTLADMAKTAVTGKAVNDRDYIMERVIQLASGLPSTSRNGKELTNTFLTQLWGDLEHPPISYLGRDAAYRKADGSGNNTFWPQIGAANTPYARSVRPKTMQPVALPEPEALFDSLLARKDFKEHPNKISSVLFHLASIIIHDLFQTDPRDQTKSLTSSYLDLSPLYGNNQKEQDTVRAFKDGKLKPDCFSTKRVLGFPPGVGVILIMFNRFHNSVVTQLAAINEGGRFTKPDESNAEAYATWDNDLFQTARLVTCGLYINIILKDYVRTILNVNRTDSLWSLDPRADIRDGLLGEAPAQATGNQVSAEFNLVYRWHSCVSSRDEKWSEDLYKEIFDGKDPKEISMQQFTGGLRQWESKLPADPQERPFAKLQRQADGKFDDNDLVKIFEESVEDPAGAFGALNVPDVFRGIEVLGIKQARSWNLATLNEFRQYFGLAAYQTFEEINPDPYVANQLKHFYDHPDLVELYPGLVVEETKQAMTPGSGLCTNFTTSRAILSDAVALVRGDRFYTVDFTPKHLTNWAFNEINNDVSVDGGQVFYKLILKAFPNHFRGDSVYAHFPLVVPDENKKILTSLGKVKTYSFDRPFYKAPPLFINSHSACTKILKDQEGFKVVWGEKIQFLMENSGRPYGRDFALSGDLPANAASRKMIGAALHRDKWESEVKAFYEDITLKLLERNSFKVAGVNQVDIVRDVAVLAQVNFCANVFSLSLKTESNPRGVFSEQELYQILAVIFASIFYDVDVSKSLQLCQTARNVAQQLGELTLANVELVAKTGFISNLVNRLHRHDILSEYGIHMIQRLLDSQLPVKDVVWSHILPTAGALVANQGQLFSQCIDYYLSEEAAEHLAEIQRLSREDTPEADELLVRYFMEGARLRCSVALPRFATKPTVVDDNGKRVTLKAGQEIICNLVVAGRDPVAFPDPDKVRLDRDMSLYTHFGFGPHECLGVKMCPLALSTMLKVLGRLDNVRRAPGPQGHLKRLDGLGGIAMYMDAEHSSFSPFPMTMKIQWDGDLPARRE
notes: full length, 1,074 residues, C-terminal His6 (pET-21a), E. coli ER2566, HisTrap purified; calculated 120,998 Da; N-terminal DOX domain 1-669, C-terminal P450 hydroperoxide isomerase domain 670-1074
In the case of B1, in series [4], the Km is 20.0 ± 0.5 µM, the kcat came out at 81.8 ± 3.77 s⁻¹ and the kcat/Km was 4.32e+06 M⁻¹ s⁻¹.

Source of the values: article PMC4727417, “Characterization of a novel 8R,11S-linoleate diol synthase from Penicillium chrysogenum by identification of its enzymatic products” (Journal of Lipid Research, 2016).
